Measurements published in US20230416228A1 (Forkhead Biotherapeutics, Inc., priority 2020, published 2023).

Biological target: T1, human FOXO1 (constitutively active form Thr24Ala, Ser256Ala, Ser319Ala) (Homo sapiens, UniProt Q12778, S256A/S319A/T24A)
T1 construct: expressed in transfected cells; host or cells: HEK293 cells transfected with pcDNA3.1 plasmid
Assay: FOXO1 inhibitor activity assay: cell-based transcriptional (luciferase) reporter assay in HEK293 cells
Conditions: HEK293 cells transfected with insulin response element firefly luciferase reporter, FOXO1 and Renilla luciferase; 10-point dose response 50 μM to 2.5 nM; 24 hours
Outline: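 IC50 and maximal inhibition were fitted by 4-parameter logistic regression on normalized firefly/Renilla luciferase ratios. The 0% reference used RFP in place of FOXO1, and the 100% reference was DMSO-only with all plasmids.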

T1 sequence (Q12778 whole entry T24A/S256A/S319A): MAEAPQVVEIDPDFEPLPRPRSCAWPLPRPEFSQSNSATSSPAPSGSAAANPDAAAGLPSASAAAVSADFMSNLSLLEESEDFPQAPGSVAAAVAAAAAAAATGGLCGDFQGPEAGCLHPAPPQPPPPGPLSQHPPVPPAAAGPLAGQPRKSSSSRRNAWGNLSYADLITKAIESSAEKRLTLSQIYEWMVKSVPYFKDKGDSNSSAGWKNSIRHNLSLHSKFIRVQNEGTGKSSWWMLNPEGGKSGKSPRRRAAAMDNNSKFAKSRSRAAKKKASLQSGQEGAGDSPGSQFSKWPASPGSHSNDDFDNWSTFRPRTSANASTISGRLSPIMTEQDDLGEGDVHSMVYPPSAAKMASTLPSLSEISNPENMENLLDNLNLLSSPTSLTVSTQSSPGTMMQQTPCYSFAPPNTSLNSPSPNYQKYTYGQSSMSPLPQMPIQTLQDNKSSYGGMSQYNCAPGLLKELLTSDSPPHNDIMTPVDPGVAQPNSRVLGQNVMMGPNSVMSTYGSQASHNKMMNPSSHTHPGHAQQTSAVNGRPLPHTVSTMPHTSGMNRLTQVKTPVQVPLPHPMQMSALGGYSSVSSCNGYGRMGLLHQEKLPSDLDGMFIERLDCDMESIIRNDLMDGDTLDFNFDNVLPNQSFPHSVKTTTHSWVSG

Row | SMILES | IC50 [nM]
1 | COCCOc1ccc2[nH]c(-c3cc(NC(=O)c4ccc(OC)c(Cl)c4)n[nH]3)nc2c1 [Compound A-256, 3-chloro-4-methoxy-N-[5-[5-(2-methoxyethoxy)-1H-benzimidazol-2-yl]-1H-pyrazol-3-yl]benzamide] | < 100
2 | O=C(Nc1cc(-c2nc3ccccc3[nH]2)[nH]n1)c1ccc(NCCO)c(Cl)c1 [Compound A-78, N-[5-(1H-benzimidazol-2-yl)-1H-pyrazol-3-yl]-3-chloro-4-(2-hydroxy-ethylamino)benzamide] | 100 to 300
3 | COCCN1CCN(c2ccc(C(=O)Nc3cc(-c4nc5ccccc5[nH]4)[nH]n3)cc2)CC1 [Compound A-174, N-[5-(1H-benzimidazol-2-yl)-1H-pyrazol-3-yl]-4-[4-(2-methoxyethyl)-piperazin-1-yl]benzamide] | < 100
4 | COc1cc(F)c2[nH]c(-c3cc(NC(=O)c4ccc(N5CCN(C6COC6)CC5)cc4)nn3C)nc2c1 [Compound A-219, N-[5-(7-fluoro-5-methoxy-1H-benzimidazol-2-yl)-1-methyl-pyrazol-3-yl]-4-[4-(oxetan-3-yl)piperazin-1-yl]benzamide] | < 100
5 | CN(C)C1CCN(c2ccc(C(=O)Nc3cc(-c4nc5cccc(F)c5[nH]4)n(C)n3)cn2)CC1 [Compound A-139, 6-[4-(dimethylamino)-1-piperidyl]-N-[5-(4-fluoro-1H-benzimidazol-2-yl)-1-methyl-pyrazol-3-yl]pyridine-3-carboxamide] | 100 to 300
6 | COc1ccc(C(=O)Nc2cc(-c3nc4cc(N5CCN(C)CC5)ccc4[nH]3)[nH]n2)cc1Cl [Compound A-261, 3-chloro-4-methoxy-N-[5-[5-(4-methylpiperazin-1-yl)-1H-benzimidazol-2-yl]-1H-pyrazol-3-yl]benzamide] | < 100
7 | COc1ccc2[nH]c(-c3cc(NC(=O)c4ccc(OCCO)c(Cl)c4)n[nH]3)nc2c1 [Compound A-117, 3-chloro-4-(2-hydroxyethoxy)-N-[5-(5-methoxy-1H-benzimidazol-2-yl)-1H-pyrazol-3-yl]benzamide formic acid] | < 100
8 | Cc1ccc2[nH]c(-c3cc(NC(=O)c4ccc(N5CCOCC5)nc4)n[nH]3)nc2c1 [Compound A-100, N-[5-(5-methyl-1H-benzimidazol-2-yl)-1H-pyrazol-3-yl]-6-morpholino-pyridine-3-carboxamide] | 100 to 300
9 | Cn1nc(NC(=O)c2ccc(N3CC4CCC(C3)N4)nc2)cc1-c1nc2ccccc2[nH]1 [Compound A-286, N-[5-(1H-benzimidazol-2-yl)-1-methyl-pyrazol-3-yl]-6-(3,8-diazabicyclo[3.2.1]octan-3-yl)pyridine-3-carboxamide] | 100 to 300
10 | O=C(Nc1cc(-c2nc3ccccc3[nH]2)[nH]n1)c1ccc(OCCO)c(Cl)c1 [Compound A-50, N-[5-(1H-benzimidazol-2-yl)-1H-pyrazol-3-yl]-3-chloro-4-(2-hydroxy-ethoxy)benzamide] | < 100
11 | O=C(Nc1cc(-c2nc3ccccc3[nH]2)[nH]n1)c1ccc(N2CC[C@H](O)C2)cc1 [Compound A-43, N-[5-(1H-benzimidazol-2-yl)-1H-pyrazol-3-yl]-4-[(3S)-3-hydroxy-pyrrolidin-1-yl]benzamide] | < 100
12 | O=C(Nc1cc(-c2nc3cc(F)ccc3[nH]2)[nH]n1)c1ccc(N2CCOCC2)nc1 [Compound A-82, N-[5-(5-fluoro-1H-benzimidazol-2-yl)-1H-pyrazol-3-yl]-6-morpholino-pyridine-3-carboxamide] | < 100
13 | O=C(Nc1cc(-c2nc3cc(C(F)(F)F)ccc3[nH]2)[nH]n1)c1ccc(N2CCC(CO)CC2)nc1 [Compound A-101, 6-[4-(hydroxymethyl)-1-piperidyl]-N-[5-[5-(trifluoromethyl)-1H-benzimidazol-2-yl]-1H-pyrazol-3-yl]pyridine-3-carboxamide] | > 1000
14 | O=C(Nc1cc(-c2nc3ccccc3[nH]2)[nH]n1)c1ccc(N2CCNCC2)nc1 [Compound A-218, N-[5-(1H-benzimidazol-2-yl)-1H-pyrazol-3-yl]-6-piperazin-1-yl-pyridine-3-carboxamide] | 100 to 300
15 | Cn1nc(NC(=O)c2ccc(N3CCN4C(=O)CC[C@H]4C3)nc2)cc1-c1nc2ccccc2[nH]1 [Compound A-250] | 300 to 1000
16 | O=C(Nc1cc(-c2nc3cc(Cl)ccc3[nH]2)[nH]n1)c1ccc(N2CCOCC2)nc1 [Compound A-88, N-[5-(5-chloro-1H-benzimidazol-2-yl)-1H-pyrazol-3-yl]-6-morpholino-pyridine-3-carboxamide] | > 1000
17 | O=C(Nc1cc(-c2nc3cc(C(F)(F)F)ccc3[nH]2)[nH]n1)c1ccc(OCCO)c(Cl)c1 [Compound A-123, 3-chloro-4-(2-hydroxyethoxy)-N-[5-[5-(trifluoromethyl)-1H-benzimidazol-2-yl]-1H-pyrazol-3-yl]benzamide formic acid] | < 100
18 | Cn1nc(NC(=O)c2ccc(N3CCC(CO)CC3)nc2)cc1-c1nc2cccc(F)c2[nH]1 [Compound A-136, N-[5-(4-fluoro-1H-benzimidazol-2-yl)-1-methyl-pyrazol-3-yl]-6-[4-(hydroxymethyl)-1-piperidyl]pyridine-3-carboxamide] | 100 to 300
19 | O=C(Nc1cc(-c2nc3cccc(F)c3[nH]2)[nH]n1)c1ccc(N2CCOCC2)nc1 [Compound A-85, N-[5-(7-fluoro-1H-benzimidazol-2-yl)-1H-pyrazol-3-yl]-6-morpholino-pyridine-3-carboxamide] | < 100
20 | Cn1nc(NC(=O)c2ccc(N3CCC[C@H]3C(=O)O)nc2)cc1-c1nc2cc(F)ccc2[nH]1 [Compound A-151, (2S)-1-[5-[[5-(5-fluoro-1H-benzimidazol-2-yl)-1-methyl-pyrazol-3-yl]carbamoyl]-2-pyridyl]pyrrolidine-2-carboxylic acid] | > 1000
21 | Cc1nc(N2CCN(C)CC2)ccc1C(=O)Nc1cc(-c2nc3ccccc3[nH]2)n(C)n1 [Compound A-253, N-[5-(1H-benzimidazol-2-yl)-1-methyl-pyrazol-3-yl]-2-methyl-6-(4-methylpiperazin-1-yl)pyridine-3-carboxamide] | 100 to 300
22 | COCCCOc1ccc(C(=O)Nc2cc(-c3nc4cc(OC)ccc4[nH]3)[nH]n2)cc1Cl [Compound A-58, 3-chloro-N-[5-(5-methoxy-1H-benzimidazol-2-yl)-1H-pyrazol-3-yl]-4-(3-methoxypropoxy)benzamide] | < 100

Further lines, results first:

Row | IC50 [nM] | SMILES
23 | > 1000 | COc1cc(F)c2[nH]c(-c3cc(NC(=O)c4ccc(N5CCOC(CO)C5)nc4)n[nH]3)nc2c1 (centres unmarked) [Compound A-239, N-[5-(7-fluoro-5-methoxy-1H-benzimidazol-2-yl)-1H-pyrazol-3-yl]-6-[2-(hydroxymethyl)morpholin-4-yl]pyridine-3-carboxamide]
24 | 100 to 300 | O=C(Nc1cc(-c2nc3ccccc3[nH]2)[nH]n1)c1ccc(N2CCC(O)CC2)nc1 [Compound A-42, N-[5-(1H-benzimidazol-2-yl)-1H-pyrazol-3-yl]-6-(4-hydroxy-1-piperidyl)pyridine-3-carboxamide]
25 | > 1000 | CCOC(=O)[C@H]1CCCN1c1ccc(C(=O)Nc2cc(-c3nc4cc(F)ccc4[nH]3)n(C)n2)cn1 [Compound A-146, ethyl (2R)-1-[5-[[5-(5-fluoro-1H-benzimidazol-2-yl)-1-methyl-pyrazol-3-yl]carbamoyl]-2-pyridyl]pyrrolidine-2-carboxylate]
26 | > 1000 | O=C(Nc1ccccc1)Nc1cc(-c2nc3ccccc3[nH]2)[nH]n1 [Compound A-140, 1-[5-(1H-benzimidazol-2-yl)-1H-pyrazol-3-yl]-3-phenyl-urea]
27 | < 100 | COCCOc1ccc(C(=O)Nc2cc(-c3nc4ccccc4[nH]3)[nH]n2)cc1F [Compound A-103, N-[5-(1H-benzimidazol-2-yl)-1H-pyrazol-3-yl]-3-fluoro-4-(2-methoxy-ethoxy)benzamide]
28 | 300 to 1000 | CC(=O)N1CCN(c2ccc(C(=O)Nc3cc(-c4nc5ccccc5[nH]4)[nH]n3)cn2)CC1 [Compound A-233]
29 | 100 to 300 | CCOCCNc1ccc(C(=O)Nc2cc(-c3nc4ccccc4[nH]3)[nH]n2)cn1 [Compound A-61, N-[5-(1H-benzimidazol-2-yl)-1H-pyrazol-3-yl]-6-(2-ethoxyethylamino)-pyridine-3-carboxamide]
30 | > 1000 | COc1ccn2cc(-c3cc(NC(=O)c4ccc(OC)c(Cl)c4)n[nH]3)nc2c1 [Compound A-162, 3-chloro-4-methoxy-N-[5-(7-methoxyimidazo[1,2-a]pyridin-2-yl)-1H-pyrazol-3-yl]benzamide]
31 | < 100 | COC1CN(c2ccc(C(=O)Nc3cc(-c4nc5ccccc5[nH]4)[nH]n3)cn2)C1 [Compound A-65, N-[5-(1H-benzimidazol-2-yl)-1H-pyrazol-3-yl]-6-(3-methoxyazetidin-1-yl)pyridine-3-carboxamide]
32 | < 100 | COCCOc1ccc(C(=O)Nc2cc(-c3nc4cccc(F)c4[nH]3)n(C)n2)cc1Cl [Compound A-164, 3-chloro-N-[5-(7-fluoro-1H-benzimidazol-2-yl)-1-methyl-pyrazol-3-yl]-4-(2-methoxyethoxy)benzamide]
33 | 100 to 300 | Cn1nc(NC(=O)c2ccc(N3CCC4(CCCO4)CC3)nc2)cc1-c1nc2ccccc2[nH]1 [Compound A-273, N-[5-(1H-benzimidazol-2-yl)-1-methyl-pyrazol-3-yl]-6-(1-oxa-8-azaspiro[4.5]decan-8-yl)pyridine-3-carboxamide]
34 | > 1000 | O=C(Nc1cc(-c2nc3ccccc3[nH]2)[nH]n1)c1ccc(N2CC3(COC3)C2)nc1 [Compound A-45, N-[5-(1H-benzimidazol-2-yl)-1H-pyrazol-3-yl]-6-(2-oxa-6-azaspiro[3.3]heptan-6-yl)pyridine-3-carboxamide]
35 | < 100 | O=C(Nc1cc(-c2nc3ccccc3[nH]2)[nH]n1)c1ccc(N2CCN(C3COC3)CC2)nc1 [Compound A-171, N-[5-(1H-benzimidazol-2-yl)-1H-pyrazol-3-yl]-6-[4-(oxetan-3-yl)-piperazin-1-yl]pyridine-3-carboxamide]
